# In patent US20070043024A1, “Azacyclic compounds as inhibitors of sensory neurone specific channels” (priority 2003, published 2007):
# Target: T1, human Nav1.8 (hNav1.8) ion channel (Homo sapiens, UniProt Q9Y5Y9)
# T1 construct: expressed in transfected cells
# Assay: Inhibition of human Nav1.8 stably expressed in SH-SY-5Y cells (membrane potential dye fluorescence assay)
# Type: cell-based
# Conditions: IC50, Table 1; SH-SY-5Y hNav1.8 cells, inhibition of membrane depolarisation, FLIPR membrane potential dye, 250 nM TTX, test concentration range 100 μM-0.05 μM
# T1 sequence (Q9Y5Y9 whole entry): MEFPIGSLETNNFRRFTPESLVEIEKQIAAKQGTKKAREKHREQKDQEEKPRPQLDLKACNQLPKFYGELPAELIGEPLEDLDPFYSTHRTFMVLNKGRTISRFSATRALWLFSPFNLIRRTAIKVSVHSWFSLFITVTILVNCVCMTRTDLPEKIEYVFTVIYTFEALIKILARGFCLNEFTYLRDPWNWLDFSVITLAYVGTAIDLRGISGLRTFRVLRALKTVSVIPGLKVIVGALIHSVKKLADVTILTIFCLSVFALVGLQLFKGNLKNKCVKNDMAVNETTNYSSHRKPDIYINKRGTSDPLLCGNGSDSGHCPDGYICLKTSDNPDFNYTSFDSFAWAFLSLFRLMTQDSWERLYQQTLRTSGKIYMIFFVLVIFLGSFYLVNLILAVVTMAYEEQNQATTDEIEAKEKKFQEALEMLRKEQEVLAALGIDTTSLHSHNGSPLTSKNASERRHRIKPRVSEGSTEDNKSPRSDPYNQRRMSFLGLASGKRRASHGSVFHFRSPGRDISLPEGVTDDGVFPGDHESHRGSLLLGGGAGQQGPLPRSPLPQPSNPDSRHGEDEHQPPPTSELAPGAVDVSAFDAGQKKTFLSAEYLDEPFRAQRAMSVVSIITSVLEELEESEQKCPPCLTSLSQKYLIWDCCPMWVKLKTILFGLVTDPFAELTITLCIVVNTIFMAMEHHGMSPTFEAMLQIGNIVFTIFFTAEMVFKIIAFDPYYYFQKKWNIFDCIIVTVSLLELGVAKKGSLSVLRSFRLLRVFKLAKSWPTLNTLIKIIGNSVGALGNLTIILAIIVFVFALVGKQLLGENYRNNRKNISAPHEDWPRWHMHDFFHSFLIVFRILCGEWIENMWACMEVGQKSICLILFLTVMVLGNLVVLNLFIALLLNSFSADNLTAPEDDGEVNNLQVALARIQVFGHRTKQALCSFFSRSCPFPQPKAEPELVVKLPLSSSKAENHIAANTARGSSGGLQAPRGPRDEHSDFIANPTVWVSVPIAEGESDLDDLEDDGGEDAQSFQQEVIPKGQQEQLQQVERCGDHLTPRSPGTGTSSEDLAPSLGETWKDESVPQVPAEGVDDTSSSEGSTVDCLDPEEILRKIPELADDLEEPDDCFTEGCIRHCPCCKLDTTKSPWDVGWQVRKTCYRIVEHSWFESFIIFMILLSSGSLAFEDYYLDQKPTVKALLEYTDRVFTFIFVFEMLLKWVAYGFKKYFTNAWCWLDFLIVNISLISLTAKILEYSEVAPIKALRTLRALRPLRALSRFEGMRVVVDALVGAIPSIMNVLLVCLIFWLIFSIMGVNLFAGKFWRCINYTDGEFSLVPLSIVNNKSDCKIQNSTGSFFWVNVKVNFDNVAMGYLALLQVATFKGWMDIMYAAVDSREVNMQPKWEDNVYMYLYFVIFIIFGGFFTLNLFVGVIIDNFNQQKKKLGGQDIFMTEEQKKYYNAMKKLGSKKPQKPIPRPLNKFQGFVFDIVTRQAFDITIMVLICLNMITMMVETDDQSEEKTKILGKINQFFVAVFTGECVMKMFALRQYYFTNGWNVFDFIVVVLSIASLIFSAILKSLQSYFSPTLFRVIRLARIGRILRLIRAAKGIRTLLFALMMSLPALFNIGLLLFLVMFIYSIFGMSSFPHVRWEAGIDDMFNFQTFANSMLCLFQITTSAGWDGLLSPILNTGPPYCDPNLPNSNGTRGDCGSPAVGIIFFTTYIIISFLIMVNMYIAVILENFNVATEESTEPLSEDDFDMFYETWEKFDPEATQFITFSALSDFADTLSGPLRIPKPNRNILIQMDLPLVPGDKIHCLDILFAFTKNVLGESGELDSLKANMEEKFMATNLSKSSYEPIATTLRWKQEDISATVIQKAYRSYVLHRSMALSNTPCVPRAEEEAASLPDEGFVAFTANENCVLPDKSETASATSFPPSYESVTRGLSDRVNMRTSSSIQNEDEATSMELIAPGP
row,Structure (SMILES),IC50 [µM]
1,"O=C(CN1CCc2cccc(O)c2C1)N(Cc1ccccc1)c1ccccc1 [Example 25, N-Benzyl-2-(8-hydroxy-3,4-dihydro-1H-isoquinolin-2-yl)-N-phenyl-acetamide]",1.07
2,"O=C(CN1CCc2cccc(O)c2C1)NCCC(c1ccccc1)c1ccccc1 [Example 27, N-(3,3-Diphenyl-propyl)-2-(8-hydroxy-3,4-dihydro-1H-isoquinolin-2-yl)-acetamide]",1.02
3,"Cc1cnc(C(C)NC(=O)CN2CCc3cccc(O)c3C2)s1 (stereo not drawn) [Example 29, 2-(8-Hydroxy-3,4-dihydro-1H-isoquinolin-2-yl)-N-[1-(5-methyl-thiazol-2-yl)-ethyl]-acetamide]",15

# Same assay, conditions: Table 1; SH-SY-5Y hNav1.8 cells, inhibition of membrane depolarisation, FLIPR membrane potential dye, 250 nM TTX, test concentration range 100 μM-0.05 μM; read-out: IC50
row,Structure (SMILES),IC50 [µM]
1,Oc1cccc2c1CN(CCN(Cc1ccccc1)Cc1ccccc1)CC2 [Example 8],0.41
2,"Fc1ccc(C(CCCN2CCc3ccccc3C2)c2ccc(F)cc2)cc1 [Example 9, 2-[4,4-Bis-(4-fluoro-phenyl)-butyl]-1,2,3,4-tetrahydro-isoquinoline]",0.43
3,"COc1cccc2c1CN(CCCC(c1ccc(F)cc1)c1ccc(F)cc1)CC2 [Example 10, 2-[4,4-Bis-(4-fluoro-phenyl)-butyl]-8-methoxy-1,2,3,4-tetrahydro-isoquinoline]",0.48
4,"Oc1cccc2c1CN(CC(c1ccccc1)c1ccccc1)CC2 [Example 11, 2-(2,2-Diphenyl-ethyl)-1,2,3,4-tetrahydro-isoquinoline-8-ol]",0.6
5,"c1ccc(C(CN2CCc3ccccc3C2)c2ccccc2)cc1 [Example 12, 2-(2,2-Diphenyl-ethyl)1,2,3,4-tetrahydro-isoquinoline]",0.99
6,"COc1cccc2c1CN(CC(c1ccccc1)c1ccccc1)CC2 [Example 13, 2-(2,2-Diphenyl-ethyl)-8-methoxy-1,2,3,4-tetrahydro-isoquinoline]",1.39
7,"O=C(CN1CCc2ccccc2C1)NC(c1ccccc1)c1ccccc1 [Example 14, N-Benzyhydryl-2-(3,4-dihydro-1H-isoquinolin-2-yl)-acetamide]",1.59
8,"O=C(CN1CCc2ccccc2C1)N(Cc1ccccc1)Cc1ccccc1 [Example 16, N,N-Dibenzyl-2-(3,4-dihydro-1H-isoquinolin-2yl)-acetamide]",0.88
9,"O=C(CN1CCc2ccccc2C1)N(Cc1ccccc1)c1ccccc1 [Example 17, N-Benzyl-2-(3,4-dihydro-1H-isoquinolin-2-yl)-N-phenyl-acetamide]",1.25
10,"O=C(CN1CCc2ccccc2C1)NCCC(c1ccccc1)c1ccccc1 [Example 18, 2-(3,4-Dihydro-1H-isoquinolin-2yl)-N-(3,3-diphenyl-propyl)-acetamide]",0.68
11,"COc1cccc2c1CN(CC(=O)NC(c1ccccc1)c1ccccc1)CC2 [Example 19, N-Benzhydryl-2-(8-methoxy-3,4-dihydro-1H-isoquinolin-2-yl)-acetamide]",0.73
12,"COc1cccc2c1CN(CC(=O)NCCC(c1ccccc1)c1ccccc1)CC2 [Example 22, N-(3,3-Diphenyl-propyl)-2-(8-methoxy-3,4-dihydro-1H-isoquinolin-2-yl)-acetamide]",0.81
13,"O=C(CN1CCc2cccc(O)c2C1)N(Cc1ccccc1)Cc1ccccc1 [Example 23, N,N-Dibenzyl-2-(8-hydroxy-3,3-dihydro-1H-isoquinolin-2-yl)-acetamide]",0.26
14,"O=C(CN1CCc2cccc(O)c2C1)NC(c1ccccc1)c1ccccc1 [Example 24, N-Benzhydryl-2-(8-hydroxy-3,4-dihydro-1H-isoquinolin-2-yl)-acetamide]",1.51
15,"O=C(CN1CCc2cccc(O)c2C1)NC1c2ccccc2-c2ccccc21 [Example 26, N-(9H-fluoren-9-yl)-2-(8-hydroxy-3,4-dihydro-1H-isoquinolin-2-yl)acetamide]",0.67
16,O=C(CC(c1ccc(F)cc1)c1ccc(F)cc1)N1CCc2ccccc2C1 [Example 30],1.59

row,Structure (SMILES),IC50 [µM]
1,"O=C(CNC(c1ccccc1)c1ccccc1)N1CCc2ccccc2C1 [Example 31, 2-(Benzhydryl-amino)-1-(3,4-dihydro-1H-isoquinolin-2-yl)-ethanone]",1.85
2,"O=C(CNCC(c1ccccc1)c1ccccc1)N1CCc2ccccc2C1 [Example 32, 1-(3,4-Dihydro-1-isoquinolin-2-yl)-2-(2,2-diphenyl-ethylamino)-ethanone]",0.23
3,"O=C(CN(CCC(c1ccccc1)c1ccccc1)CC(=O)N1CCc2ccccc2C1)N1CCc2ccccc2C1 [Example 33, 1-(3,4-Dihydro-1H-isoquinolin-2-yl)-2-[[2-(3,4-dihydro-1H-isoquinolin-2-yl)-2-oxo-ethyl]-(3,3-diphenyl-propyl)-amino]-ethanone]",0.86
4,"O=C(CNCCC(c1ccccc1)c1ccccc1)N1CCc2ccccc2C1 [Example 34, 1-(3,4-Dihydro-1H-isoquinolin-2-yl)-2-(3,3-diphenyl-propylamino)-ethanone]",0.19
5,"O=C(CN(Cc1ccccc1)Cc1ccccc1)N1CCc2ccccc2C1 [Example 35, 2-Dibenzylamino-1-(3,4-dihydro-1H-isoquinolin-2-yl)-ethanone]",4.86
6,COc1cccc2c1CN(C(=O)CN(CC(=O)N1CCc3cccc(OC)c3C1)CC(c1ccccc1)c1ccccc1)CC2 [Example 36],2.8
7,"COc1cccc2c1CN(C(=O)CNC(c1ccccc1)c1ccccc1)CC2 [Example 38, 2-(Benzhydryl-amino)-1-(8-methoxy-3,4-dihydro-1H-isoquinoline-2-yl)-ethanone]",1.39
8,"COc1cccc2c1CN(C(=O)CNCC(c1ccccc1)c1ccccc1)CC2 [Example 39, 2-(2,2-Diphenyl-ethylamino)-1-(8-methoxy-3,4-dihydro-1H-isoquinolin-2-yl)-ethanone]",0.45
9,"O=C(CN1Cc2ccccc2C1)NCCC(c1ccccc1)c1ccccc1 [Example 40, 2-(1,3-Dihydro-isoindol-2-yl)-N-(3,3-diphenyl-propyl)-acetamide]",0.97
10,"O=C(CN1Cc2ccccc2C1)NC(c1ccccc1)c1ccccc1 [Example 41, N-Benzhydryl-2-(1,3-dihydro-isoindol-2-yl)-acetamide]",7.02
11,"O=C(CON=C(c1ccccc1)c1ccccc1)N1CCc2ccccc2C1 [Example 42, 2-Benzhydrylideneaminooxy-1-(3,4-dihydro-1H-isoquinoline-2-yl)-ethanone]",1.05
12,"COc1cccc2c1CN(C(=O)CON=C(c1ccccc1)c1ccccc1)CC2 [Example 43, 2-Benzhydrylideneaminooxy-1-(8-methoxy-3,4-dihydro-1H-isoquinoline-2-yl)-ethanone]",1.67
13,"Oc1cccc2c1CN(Cc1n[nH]nc1-c1ccccc1)CC2 [Example 45, 2-(5-Phenyl-2H-[1,2,3]triazol-4-ylmethyl)-1,2,3,4-tetrahydro-isoquinolin-8-ol]",7.21
14,"c1ccc(C(CCNCCN2CCc3ccccc3C2)c2ccccc2)cc1 [Example 46, [2-(3,4-Dihydro-1H-isoquinolin-2-yl)-ethyl]-(3,3-diphenyl-propyl)-amine]",0.29
15,"c1ccc(CN(CCN2CCc3ccccc3C2)Cc2ccccc2)cc1 [Example 47, Dibenzyl-[2-(3,4-dihydro-1H-isoquinolin-2-yl)-ethyl]-amine]",0.47

# Same assay, conditions: Table 2 (compound numbers of the list in the description); SH-SY-5Y hNav1.8 cells, inhibition of membrane depolarisation, FLIPR membrane potential dye, 250 nM TTX, test concentration range 100 μM-0.05 μM; read-out: IC50
row,Structure (SMILES),IC50 [µM]
1,"CC(C)(C)C1COc2ccccc2N1C(=O)CN1CCc2cccc(O)c2C1 (stereo not drawn) [Compound 211, 1-(3-tert-Butyl-2,3-dihydro-benzo[1,4]oxazin-4-yl)-2-(8-hydroxy-3,4-dihydro-1H-isoquinolin-2-yl)-ethanone]",3.03
2,"COc1ccc(C2COc3ccccc3N2C(=O)CN2CCc3cccc(OC)c3C2)cc1 (stereo not drawn) [Compound 212, 2-(8-Methoxy-3,4-dihydro-1H-isoquinolin-2-yl)-1-[3-(4-methoxy-phenyl)-2,3-dihydro-benzo[1,4]oxazin-4-yl]-ethanone]",5.06
3,"COc1ccc(OC)c(C2COc3ccccc3N2C(=O)CN2CCc3cccc(OC)c3C2)c1 (stereo not drawn) [Compound 213, 1-[3-(2,5-Dimethoxy-phenyl)-2,3-dihydro-benzo[1,4]oxazin-4-yl]-2-(8-methoxy-3,4-dihydro-1H-isoquinolin-2-yl)-ethanone]",8.24
4,"COc1cccc2c1CN(CC(=O)N1c3ccccc3OCC1c1ccc(NC(C)=O)cc1)CC2 (stereo not drawn) [Compound 214, N-(4-{4-[2-(8-Methoxy-3,4-dihydro-1H-isoquinolin-2-yl)-acetyl]-3,4-dihydro-2H-benzo[1,4]oxazin-3-yl}-phenyl)-acetamide]",6.36
5,"COc1cccc2c1CN(CC(=O)N1c3ccccc3OCC1c1ccc(F)cc1)CC2 (stereo not drawn) [Compound 215, 1-[3-(4-Fluoro-phenyl)-2,3-dihydro-benzo[1,4]oxazin-4-yl]-2-(8-methoxy-3,4-dihydro-1H-isoquinolin-2-yl)-ethanone]",1.11
6,"COc1ccc(C2COc3ccccc3N2C(=O)CN2CCc3cccc(OC)c3C2)cc1OC (stereo not drawn) [Compound 216, 1-[3-(3,4-Dimethoxy-phenyl)-2,3-dihydro-benzo[1,4]oxazin-4-yl]-2-(8-methoxy-3,4-dihydro-1H-isoquinolin-2-yl)-ethanone]",4.31
7,"COc1cccc2c1CN(C(C)C(=O)N1c3ccccc3Oc3ccccc31)C2 (stereo not drawn) [Compound 217, 2-(4-Methoxy-1,3-dihydro-isoindol-2-yl)-1-phenoxazin-10-yl-propan-1-one]",1.96
8,"O=C(CN1c2ccccc2Oc2ccccc21)N1Cc2ccccc2C1 [Compound 218, 1-(1,3-Dihydro-isoindol-2-yl)-2-phenoxazin-10-yl-ethanone]",12.8
9,"O=C(CN1Cc2cccc(Cl)c2C1)N1c2ccccc2Oc2ccccc21 [Compound 219, 2-(4-Chloro-1,3-dihydro-isoindol-2-yl)-1-phenoxazin-10-yl-ethanone]",0.8
10,"N#Cc1cccc2c1CN(CC(=O)N1c3ccccc3Oc3ccccc31)C2 [Compound 220, 2-(2-Oxo-2-phenoxazin-10-yl-ethyl)-2,3-dihydro-1H-isoindole-4-carbonitrile]",0.8
11,"O=C(CN1Cc2ccccc2C1)NCCC(c1ccccc1)c1ccccc1 [Example 40, 2-(1,3-Dihydro-isoindol-2-yl)-N-(3,3-diphenyl-propyl)-acetamide]",0.53
